Test results reported in publication PMC8401933 (Molecules, 2021).

What was measured:
MAK = molecular target: T1, MAK (Homo sapiens, UniProt P20794); experiment: KINOMEscan binding; conditions: read-out: Percent Control
T1 construct: purchased Eurofins DiscoverX KINOMEscan

PIM3 = molecular target: T2, PIM3 (Homo sapiens, UniProt Q86V86); experiment: KINOMEscan binding; conditions: read-out: Percent Control
T2 construct: purchased Eurofins DiscoverX KINOMEscan

PFTAIRE2 = molecular target: T3, PFTAIRE2 (Homo sapiens, UniProt Q96Q40); experiment: KINOMEscan binding; conditions: read-out: Percent Control
T3 construct: purchased Eurofins DiscoverX KINOMEscan
T3 sequence (Q96Q40 whole entry): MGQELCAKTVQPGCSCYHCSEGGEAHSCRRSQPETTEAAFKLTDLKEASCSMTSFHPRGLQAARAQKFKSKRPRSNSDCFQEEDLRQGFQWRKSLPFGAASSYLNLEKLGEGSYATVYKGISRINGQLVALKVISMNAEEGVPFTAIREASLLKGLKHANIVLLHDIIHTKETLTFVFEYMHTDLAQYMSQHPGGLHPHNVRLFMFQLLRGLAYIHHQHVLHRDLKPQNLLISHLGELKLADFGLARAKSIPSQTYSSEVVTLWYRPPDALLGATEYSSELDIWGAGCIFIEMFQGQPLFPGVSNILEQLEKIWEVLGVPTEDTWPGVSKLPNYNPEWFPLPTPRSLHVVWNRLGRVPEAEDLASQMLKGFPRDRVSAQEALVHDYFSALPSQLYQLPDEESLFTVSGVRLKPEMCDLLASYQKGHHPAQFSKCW

RET = molecular target: T4, RET (Homo sapiens, UniProt P07949); experiment: KINOMEscan binding; conditions: read-out: Percent Control
T4 construct: purchased Eurofins DiscoverX KINOMEscan

MST4 = molecular target: T5, MST4 (Homo sapiens, UniProt Q9P289); experiment: KINOMEscan binding; conditions: read-out: Percent Control
T5 construct: purchased Eurofins DiscoverX KINOMEscan

[1] = oral, rat model; cited from earlier work
TNNI3K = molecular target: T6, TNNI3K (Homo sapiens, UniProt Q59H18); experiment: KINOMEscan binding; conditions: read-out: Percent Control
T6 construct: purchased Eurofins DiscoverX KINOMEscan
T6 sequence (Q59H18 whole entry): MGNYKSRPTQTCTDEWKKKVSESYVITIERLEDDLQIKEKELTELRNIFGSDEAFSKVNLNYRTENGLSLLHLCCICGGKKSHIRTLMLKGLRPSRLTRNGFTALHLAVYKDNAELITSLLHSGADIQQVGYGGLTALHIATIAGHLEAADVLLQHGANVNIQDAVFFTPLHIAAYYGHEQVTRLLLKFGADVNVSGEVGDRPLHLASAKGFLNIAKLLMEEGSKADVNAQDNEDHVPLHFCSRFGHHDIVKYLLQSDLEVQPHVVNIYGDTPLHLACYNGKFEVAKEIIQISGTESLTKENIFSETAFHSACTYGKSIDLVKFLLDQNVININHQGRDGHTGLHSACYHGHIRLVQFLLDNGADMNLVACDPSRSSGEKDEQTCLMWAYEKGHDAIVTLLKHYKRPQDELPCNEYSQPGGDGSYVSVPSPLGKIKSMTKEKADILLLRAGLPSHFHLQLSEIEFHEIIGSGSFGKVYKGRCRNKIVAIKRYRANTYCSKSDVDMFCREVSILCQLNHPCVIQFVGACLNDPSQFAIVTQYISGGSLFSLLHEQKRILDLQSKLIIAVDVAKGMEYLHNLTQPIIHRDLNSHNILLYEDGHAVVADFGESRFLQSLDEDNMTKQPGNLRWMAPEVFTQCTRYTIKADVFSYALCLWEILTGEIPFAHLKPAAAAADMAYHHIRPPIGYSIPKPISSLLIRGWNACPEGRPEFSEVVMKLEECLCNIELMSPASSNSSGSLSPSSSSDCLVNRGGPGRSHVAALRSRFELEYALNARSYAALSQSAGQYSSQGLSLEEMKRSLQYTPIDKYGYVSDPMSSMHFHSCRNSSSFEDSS

p38-beta = molecular target: T7, p38-beta (Homo sapiens, UniProt Q15759); experiment: KINOMEscan binding; conditions: read-out: Percent Control
T7 construct: purchased Eurofins DiscoverX KINOMEscan

PIK3CA(I800L) = molecular target: T8, PIK3CA(I800L) (Homo sapiens, UniProt P42336, I800L); experiment: KINOMEscan binding; conditions: read-out: Percent Control
T8 construct: purchased Eurofins DiscoverX KINOMEscan
T8 sequence (P42336 whole entry I800L): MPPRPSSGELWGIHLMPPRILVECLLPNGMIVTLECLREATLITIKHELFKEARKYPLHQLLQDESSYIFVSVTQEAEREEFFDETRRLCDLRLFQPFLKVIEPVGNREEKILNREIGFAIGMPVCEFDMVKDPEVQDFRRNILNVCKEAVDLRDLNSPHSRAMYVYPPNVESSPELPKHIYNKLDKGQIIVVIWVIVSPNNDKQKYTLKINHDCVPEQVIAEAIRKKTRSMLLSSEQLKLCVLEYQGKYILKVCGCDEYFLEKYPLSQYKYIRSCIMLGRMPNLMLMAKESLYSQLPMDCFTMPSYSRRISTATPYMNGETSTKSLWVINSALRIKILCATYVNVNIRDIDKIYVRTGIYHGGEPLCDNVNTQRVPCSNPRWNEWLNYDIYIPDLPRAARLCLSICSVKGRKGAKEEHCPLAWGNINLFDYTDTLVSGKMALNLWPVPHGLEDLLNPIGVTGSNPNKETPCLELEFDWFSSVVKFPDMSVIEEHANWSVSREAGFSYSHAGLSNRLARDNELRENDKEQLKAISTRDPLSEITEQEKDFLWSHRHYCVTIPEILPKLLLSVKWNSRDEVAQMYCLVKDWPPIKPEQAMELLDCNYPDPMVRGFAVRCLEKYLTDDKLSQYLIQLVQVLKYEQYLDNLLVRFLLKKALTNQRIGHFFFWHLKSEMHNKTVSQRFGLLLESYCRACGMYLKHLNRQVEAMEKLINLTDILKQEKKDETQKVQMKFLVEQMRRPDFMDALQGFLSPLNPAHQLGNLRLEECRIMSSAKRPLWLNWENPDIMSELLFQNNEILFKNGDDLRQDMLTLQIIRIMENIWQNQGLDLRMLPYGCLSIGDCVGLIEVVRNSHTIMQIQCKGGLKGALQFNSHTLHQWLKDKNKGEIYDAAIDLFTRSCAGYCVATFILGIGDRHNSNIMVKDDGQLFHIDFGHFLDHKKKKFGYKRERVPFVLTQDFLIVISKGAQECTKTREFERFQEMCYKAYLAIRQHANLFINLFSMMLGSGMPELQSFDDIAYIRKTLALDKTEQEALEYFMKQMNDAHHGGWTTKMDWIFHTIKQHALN

[2] = molecular target: T9, ABL1(F317I)-phosphorylated (Homo sapiens, UniProt P00519, F317I); experiment: KINOMEscan binding; conditions: read-out: Percent Control
T9 construct: purchased Eurofins DiscoverX KINOMEscan

MAP3K3 = molecular target: T10, MAP3K3 (Homo sapiens, UniProt Q99759); experiment: KINOMEscan binding; conditions: read-out: Percent Control
T10 construct: purchased Eurofins DiscoverX KINOMEscan

AKT2 = molecular target: T11, AKT2 (Homo sapiens, UniProt P31751); experiment: KINOMEscan binding; conditions: read-out: Percent Control
T11 construct: purchased Eurofins DiscoverX KINOMEscan

EPHA5 = molecular target: T12, EPHA5 (Homo sapiens, UniProt P54756); experiment: KINOMEscan binding; conditions: read-out: Percent Control
T12 construct: purchased Eurofins DiscoverX KINOMEscan

SgK110 = molecular target: T13, SgK110 (Homo sapiens, UniProt P0C264); experiment: KINOMEscan binding; conditions: read-out: Percent Control
T13 construct: purchased Eurofins DiscoverX KINOMEscan
T13 sequence (P0C264 whole entry): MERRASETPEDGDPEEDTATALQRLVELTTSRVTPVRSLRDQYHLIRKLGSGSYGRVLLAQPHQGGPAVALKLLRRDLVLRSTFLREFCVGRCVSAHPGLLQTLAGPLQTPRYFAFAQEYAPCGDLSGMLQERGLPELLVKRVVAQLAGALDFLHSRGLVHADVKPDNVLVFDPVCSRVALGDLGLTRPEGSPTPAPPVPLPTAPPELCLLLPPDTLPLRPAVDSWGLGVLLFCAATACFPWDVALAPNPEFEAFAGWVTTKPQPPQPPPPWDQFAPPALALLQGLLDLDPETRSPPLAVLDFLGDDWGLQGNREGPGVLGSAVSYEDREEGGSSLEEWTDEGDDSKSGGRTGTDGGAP

GRK4 = molecular target: T14, GRK4 (Homo sapiens, UniProt P32298); experiment: KINOMEscan binding; conditions: read-out: Percent Control
T14 construct: purchased Eurofins DiscoverX KINOMEscan

GCN2(Kin.Dom.2,S808G) = molecular target: T15, GCN2(Kin.Dom.2,S808G) (Homo sapiens, UniProt Q9P2K8, S808G); experiment: KINOMEscan binding; conditions: read-out: Percent Control
T15 construct: GCN2(Kin.Dom.2,S808G); purchased Eurofins DiscoverX KINOMEscan

MEK6 = molecular target: T16, MEK6 (Homo sapiens, UniProt P52564); experiment: KINOMEscan binding; conditions: read-out: Percent Control
T16 construct: purchased Eurofins DiscoverX KINOMEscan
T16 sequence (P52564 whole entry): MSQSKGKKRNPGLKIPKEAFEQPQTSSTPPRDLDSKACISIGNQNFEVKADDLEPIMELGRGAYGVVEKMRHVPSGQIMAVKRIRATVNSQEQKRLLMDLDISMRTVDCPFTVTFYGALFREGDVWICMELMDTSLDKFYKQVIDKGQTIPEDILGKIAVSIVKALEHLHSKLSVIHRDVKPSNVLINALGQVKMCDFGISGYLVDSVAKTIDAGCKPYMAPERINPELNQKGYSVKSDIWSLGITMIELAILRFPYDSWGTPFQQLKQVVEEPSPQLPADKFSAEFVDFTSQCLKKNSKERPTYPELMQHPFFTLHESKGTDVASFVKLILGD

MERTK = molecular target: T17, MERTK (Homo sapiens, UniProt Q12866); experiment: KINOMEscan binding; conditions: read-out: Percent Control
T17 construct: purchased Eurofins DiscoverX KINOMEscan

TLK2 = molecular target: T18, TLK2 (Homo sapiens, UniProt Q86UE8); experiment: KINOMEscan binding; conditions: read-out: Percent Control
T18 construct: purchased Eurofins DiscoverX KINOMEscan

SIK2 = molecular target: T19, SIK2 (Homo sapiens, UniProt Q9H0K1); experiment: KINOMEscan binding; conditions: read-out: Percent Control
T19 construct: purchased Eurofins DiscoverX KINOMEscan

[3] = molecular target: T20, ABL1(T315I)-phosphorylated (Homo sapiens, UniProt P00519, T315I); experiment: KINOMEscan binding; conditions: read-out: Percent Control
T20 construct: purchased Eurofins DiscoverX KINOMEscan

PHKG1 = molecular target: T21, PHKG1 (Homo sapiens, UniProt Q16816); experiment: KINOMEscan binding; conditions: read-out: Percent Control
T21 construct: purchased Eurofins DiscoverX KINOMEscan
T21 sequence (Q16816 whole entry): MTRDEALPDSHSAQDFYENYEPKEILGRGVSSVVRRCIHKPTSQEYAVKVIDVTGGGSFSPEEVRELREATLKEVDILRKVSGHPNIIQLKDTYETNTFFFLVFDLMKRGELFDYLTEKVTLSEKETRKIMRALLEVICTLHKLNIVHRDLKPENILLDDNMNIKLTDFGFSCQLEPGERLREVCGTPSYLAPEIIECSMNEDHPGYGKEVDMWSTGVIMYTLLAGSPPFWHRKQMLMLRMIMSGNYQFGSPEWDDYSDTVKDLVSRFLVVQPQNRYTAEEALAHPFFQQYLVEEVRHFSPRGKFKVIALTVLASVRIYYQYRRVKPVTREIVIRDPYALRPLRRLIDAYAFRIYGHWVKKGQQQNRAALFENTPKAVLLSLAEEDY

TEC = molecular target: T22, TEC (Homo sapiens, UniProt P42680); experiment: KINOMEscan binding; conditions: read-out: Percent Control
T22 construct: purchased Eurofins DiscoverX KINOMEscan

YSK1 = molecular target: T23, YSK1 (Homo sapiens, UniProt O00506); experiment: KINOMEscan binding; conditions: read-out: Percent Control
T23 construct: purchased Eurofins DiscoverX KINOMEscan

WNK1 = molecular target: T24, WNK1 (Homo sapiens, UniProt Q9H4A3); experiment: KINOMEscan binding; conditions: read-out: Percent Control
T24 construct: purchased Eurofins DiscoverX KINOMEscan

CHEK1 = molecular target: T25, CHEK1 (Homo sapiens, UniProt O14757); experiment: KINOMEscan binding; conditions: read-out: Percent Control
T25 construct: purchased Eurofins DiscoverX KINOMEscan
T25 sequence (O14757 whole entry): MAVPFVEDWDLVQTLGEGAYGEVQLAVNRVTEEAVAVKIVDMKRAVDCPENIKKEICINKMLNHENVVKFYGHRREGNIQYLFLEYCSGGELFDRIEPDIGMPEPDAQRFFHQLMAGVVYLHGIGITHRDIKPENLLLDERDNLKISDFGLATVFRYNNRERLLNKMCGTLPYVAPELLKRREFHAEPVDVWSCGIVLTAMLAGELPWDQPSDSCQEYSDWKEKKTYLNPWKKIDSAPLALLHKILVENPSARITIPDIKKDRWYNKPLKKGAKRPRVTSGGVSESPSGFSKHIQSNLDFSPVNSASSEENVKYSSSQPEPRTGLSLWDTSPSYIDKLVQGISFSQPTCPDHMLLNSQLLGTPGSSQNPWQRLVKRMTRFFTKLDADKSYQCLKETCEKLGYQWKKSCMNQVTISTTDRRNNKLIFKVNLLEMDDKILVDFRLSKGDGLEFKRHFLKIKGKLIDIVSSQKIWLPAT

HUNK = molecular target: T26, HUNK (Homo sapiens, UniProt P57058); experiment: KINOMEscan binding; conditions: read-out: Percent Control
T26 construct: purchased Eurofins DiscoverX KINOMEscan

FLT3 = molecular target: T27, FLT3 (Homo sapiens, UniProt P36888); experiment: KINOMEscan binding; conditions: read-out: Percent Control
T27 construct: purchased Eurofins DiscoverX KINOMEscan

EPHB6 = molecular target: T28, EPHB6 (Homo sapiens, UniProt O15197); experiment: KINOMEscan binding; conditions: read-out: Percent Control
T28 construct: purchased Eurofins DiscoverX KINOMEscan

LRRK2(G2019S) = molecular target: T29, LRRK2(G2019S) (Homo sapiens, UniProt Q5S007, G2019S); experiment: KINOMEscan binding; conditions: read-out: Percent Control
T29 construct: purchased Eurofins DiscoverX KINOMEscan

CLK2 = molecular target: T30, CLK2 (Homo sapiens, UniProt P49760); experiment: KINOMEscan binding; conditions: read-out: Percent Control
T30 construct: purchased Eurofins DiscoverX KINOMEscan

[4] = molecular target: T31, RSK4(Kin.Dom.2-C-terminal) (Homo sapiens, UniProt Q9UK32); experiment: KINOMEscan binding; conditions: read-out: Percent Control
T31 construct: RSK4(Kin.Dom.2-C-terminal); purchased Eurofins DiscoverX KINOMEscan

MAP4K3 = molecular target: T32, MAP4K3 (Homo sapiens, UniProt Q8IVH8); experiment: KINOMEscan binding; conditions: read-out: Percent Control
T32 construct: purchased Eurofins DiscoverX KINOMEscan
T32 sequence (Q8IVH8 whole entry): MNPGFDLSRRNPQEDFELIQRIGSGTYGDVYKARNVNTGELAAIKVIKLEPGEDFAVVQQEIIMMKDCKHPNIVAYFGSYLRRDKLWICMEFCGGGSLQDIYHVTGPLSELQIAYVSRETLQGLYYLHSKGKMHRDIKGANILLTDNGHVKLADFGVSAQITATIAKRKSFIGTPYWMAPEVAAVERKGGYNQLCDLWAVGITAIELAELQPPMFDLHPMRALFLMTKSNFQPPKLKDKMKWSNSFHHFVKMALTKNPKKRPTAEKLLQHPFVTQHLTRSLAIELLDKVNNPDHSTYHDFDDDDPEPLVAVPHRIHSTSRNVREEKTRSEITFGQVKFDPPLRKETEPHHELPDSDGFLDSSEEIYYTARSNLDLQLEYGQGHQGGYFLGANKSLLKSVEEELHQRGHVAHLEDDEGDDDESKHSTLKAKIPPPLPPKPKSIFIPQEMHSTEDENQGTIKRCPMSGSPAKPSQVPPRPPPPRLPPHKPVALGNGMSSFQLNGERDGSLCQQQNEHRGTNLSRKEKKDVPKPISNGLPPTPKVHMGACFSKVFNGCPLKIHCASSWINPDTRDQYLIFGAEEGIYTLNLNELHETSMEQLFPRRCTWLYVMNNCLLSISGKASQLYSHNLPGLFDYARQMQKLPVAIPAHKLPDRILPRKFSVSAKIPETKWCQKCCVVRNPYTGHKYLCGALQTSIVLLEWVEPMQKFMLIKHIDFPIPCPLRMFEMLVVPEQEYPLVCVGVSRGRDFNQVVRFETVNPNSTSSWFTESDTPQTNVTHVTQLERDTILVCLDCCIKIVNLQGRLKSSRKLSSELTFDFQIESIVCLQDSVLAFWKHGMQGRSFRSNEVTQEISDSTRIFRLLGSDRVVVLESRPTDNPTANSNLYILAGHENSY

VPS34 = molecular target: T33, VPS34 (Homo sapiens, UniProt Q8NEB9); experiment: KINOMEscan binding; conditions: read-out: Percent Control
T33 construct: purchased Eurofins DiscoverX KINOMEscan

CAMK2D = molecular target: T34, CAMK2D (Homo sapiens, UniProt Q13557); experiment: KINOMEscan binding; conditions: read-out: Percent Control
T34 construct: purchased Eurofins DiscoverX KINOMEscan

STK33 = molecular target: T35, STK33 (Homo sapiens, UniProt Q9BYT3); experiment: KINOMEscan binding; conditions: read-out: Percent Control
T35 construct: purchased Eurofins DiscoverX KINOMEscan

DAPK1 = molecular target: T36, DAPK1 (Homo sapiens, UniProt P53355); experiment: KINOMEscan binding; conditions: read-out: Percent Control
T36 construct: purchased Eurofins DiscoverX KINOMEscan

PKNB(M.tuberculosis) = molecular target: T37, PKNB(M.tuberculosis) (Mycobacterium tuberculosis, UniProt P9WI81); experiment: KINOMEscan binding; conditions: read-out: Percent Control
T37 construct: purchased Eurofins DiscoverX KINOMEscan

PIK3CA(E545A) = molecular target: T38, PIK3CA(E545A) (Homo sapiens, UniProt P42336, E545A); experiment: KINOMEscan binding; conditions: read-out: Percent Control
T38 construct: purchased Eurofins DiscoverX KINOMEscan
T38 sequence (P42336 whole entry E545A): as the sequence (P42336 whole entry I800L) above, with E545A, L800I counted along it

PCTK1 = molecular target: T39, PCTK1 (Homo sapiens, UniProt Q00536); experiment: KINOMEscan binding; conditions: read-out: Percent Control
T39 construct: purchased Eurofins DiscoverX KINOMEscan

DAPK3 = molecular target: T40, DAPK3 (Homo sapiens, UniProt O43293); experiment: KINOMEscan binding; conditions: read-out: Percent Control
T40 construct: purchased Eurofins DiscoverX KINOMEscan

PIK3CA(M1043I) = molecular target: T41, PIK3CA(M1043I) (Homo sapiens, UniProt P42336, M1043I); experiment: KINOMEscan binding; conditions: read-out: Percent Control
T41 construct: purchased Eurofins DiscoverX KINOMEscan
T41 sequence (P42336 whole entry M1043I): as the sequence (P42336 whole entry I800L) above, with L800I, M1043I counted along it

CDK4-cyclinD1 = molecular target: T42, CDK4-cyclinD1 (Homo sapiens, UniProt P11802); experiment: KINOMEscan binding; conditions: read-out: Percent Control
T42 construct: purchased Eurofins DiscoverX KINOMEscan

Q: For CC(C)NC(=O)COc1cccc(-c2nc(Nc3ccc4[nH]ncc4c3)c3ccccc3n2)c1 [KD025, 2-(3-(4-((1H-indazol-5-yl)amino)quinazolin-2-yl)phenoxy)-N-isopropylacetamide], which remaining binding at 10 µM (MAK) is on record?
A: 84%

Q: And the remaining binding at 10 µM (PIM3)?
A: 63%

Q: And the remaining binding at 10 µM (PFTAIRE2)?
A: 52%

Q: And the remaining binding at 10 µM (RET)?
A: 88%

Q: What about the remaining binding at 10 µM (MST4) of the same compound?
A: 88%

Q: And the absolute bioavailability [1]?
A: 37%

Q: What about the remaining binding at 10 µM (TNNI3K) of the same compound?
A: 92%

Q: And the remaining binding at 10 µM (p38-beta)?
A: 93%

Q: And the remaining binding at 10 µM (PIK3CA(I800L))?
A: 100%

Q: What about the remaining binding at 10 µM [2] of the same compound?
A: 93%

Q: And the remaining binding at 10 µM (MAP3K3)?
A: 80%

Q: What about the remaining binding at 10 µM (AKT2) of the same compound?
A: 90%

Q: What about the remaining binding at 10 µM (EPHA5) of the same compound?
A: 92%

Q: What about the remaining binding at 10 µM (SgK110) of the same compound?
A: 100%

Q: What about the remaining binding at 10 µM (GRK4) of the same compound?
A: 16%

Q: And the remaining binding at 10 µM (GCN2(Kin.Dom.2,S808G))?
A: 100%

Q: And the remaining binding at 10 µM (MEK6)?
A: 87%

Q: What about the remaining binding at 10 µM (MERTK) of the same compound?
A: 58%

Q: What about the remaining binding at 10 µM (TLK2) of the same compound?
A: 100%

Q: And the remaining binding at 10 µM (SIK2)?
A: 74%

Q: What about the remaining binding at 10 µM [3] of the same compound?
A: 93%

Q: And the remaining binding at 10 µM (PHKG1)?
A: 87%

Q: And the remaining binding at 10 µM (TEC)?
A: 95%

Q: What about the remaining binding at 10 µM (YSK1) of the same compound?
A: 70%

Q: What about the remaining binding at 10 µM (WNK1) of the same compound?
A: 94%

Q: What about the remaining binding at 10 µM (CHEK1) of the same compound?
A: 100%

Q: What about the remaining binding at 10 µM (HUNK) of the same compound?
A: 100%

Q: And the remaining binding at 10 µM (FLT3)?
A: 60%

Q: And the remaining binding at 10 µM (EPHB6)?
A: 67%

Q: What about the remaining binding at 10 µM (LRRK2(G2019S)) of the same compound?
A: 99%

Q: What about the remaining binding at 10 µM (CLK2) of the same compound?
A: 51%

Q: And the remaining binding at 10 µM [4]?
A: 88%

Q: What about the remaining binding at 10 µM (MAP4K3) of the same compound?
A: 78%

Q: What about the remaining binding at 10 µM (VPS34) of the same compound?
A: 27%

Q: What about the remaining binding at 10 µM (CAMK2D) of the same compound?
A: 71%

Q: And the remaining binding at 10 µM (STK33)?
A: 67%

Q: And the remaining binding at 10 µM (DAPK1)?
A: 85%

Q: And the remaining binding at 10 µM (PKNB(M.tuberculosis))?
A: 83%

Q: What about the remaining binding at 10 µM (PIK3CA(E545A)) of the same compound?
A: 65%

Q: What about the remaining binding at 10 µM (PCTK1) of the same compound?
A: 91%

Q: And the remaining binding at 10 µM (DAPK3)?
A: 35%

Q: What about the remaining binding at 10 µM (PIK3CA(M1043I)) of the same compound?
A: 48%

Q: And the remaining binding at 10 µM (CDK4-cyclinD1)?
A: 89%
